In patent publication US20210332024A1, “MODULATORS OF PIN1 ACTIVITY AND USES THEREOF” (Yeda Research and Development Co. Ltd., priority 2019, published 2021):

Key:
catalytic domain of Pin1 = molecular target: T1, catalytic domain of Pin1 (Homo sapiens, UniProt Q13526); test: Intact protein LC/MS labeling of Pin1; format: binding
T1 construct: The purified catalytic domain of Pin1 was incubated with the fragment library
Description: 993 compounds were transferred to a 384-well plate working copy by combining 0.5 μl of 20 mM stock solution of four or five compounds per well. The catalytic domain of Pin1 (2 μM) in 20 mM Tris, 75 mM NaCl, pH 7.5 was incubated with 200 μM for each compound and moderately shaken for 24 hours at 4° C. The reaction was stopped by the addition of formic acid to 0.4% (v/v) final concentration.
Liquid chromatography/mass spectroscopy runs were performed on an Acquity™ UPLC® H-class system (Waters) in positive ion mode using electrospray ionization (ESI). UPLC separation was performed on a C4 column (300 Å, 1.7 μM, […]). The column was held at 40° C., and the autosampler at 10° C. Mobile solution A was 0.1% formic acid in water and mobile phase B was 0.1% formic acid in acetonitrile. Run flow was 0.4 ml/minute; and a gradient of 20% B for 2 minutes, increasing linearly to 60% B for 3 minutes, holding at 60% B for 1.5 minutes, changing to 0% B in 0.1 minute and holding at 0% for 1.4 minutes, was used. Desolvation temperature was 500° C. with a flow rate of 1000 liters/hour. The capillary voltage was 0.69 kV and cone voltage 46 V. Raw data was processed using OpenLynx™ software and deconvoluted using the MaxEnt tool. Labeling assignment was performed as described in Resnick et al. [J Am Chem Soc 2019, 141:8951-8968].
For the screening 2 μl of each of the 448 click products as 50 μM DMSO stocks were transferred into a 384-well plate working plate. 48 μl of catalytic domain of Pin1 (2 μM) in 20 mM Tris (pH 7.5) with 75 mM NaCl were added and moderately shaken and incubated for 15 minutes at room temperature. The reaction was stopped by the addition of formic acid to 0.4% (v/v) final concentration (20 μl). The mixtures were analyzed by liquid chromatography/mass spectroscopy analogously to the electrophile library incubations described herein. Hits were retrospectively analyzed by liquid chromatography/mass spectroscopy (LC-MS) to ensure reaction completion.
For each measured well, processed peaks were searched to match the mass of unlabeled protein or common small adducts of the unlabeled protein, which were found in the control sample or labeled protein. Labeling percentage for a compound was determined as the labeling of a specific compound divided by the overall detected protein species. Peaks whose mass could not be assigned were discarded from the overall labeling calculation. Data was analyzed using a python script for processing the MaxEnt-deconvoluted spectra. Peaks were normalized from ion counts to percentages, where the highest peak is defined as 100%. The unlabeled protein mass is deduced from a reference well that contains just the protein.
The purified catalytic domain of Pin1 was incubated with the fragment library (2 μM protein, 200 μM compound; 24 hours at 4° C.), followed by intact protein liquid chromatography/mass-spectrometry (LC/MS) to identify and quantify compound labeling. FIG. 1 depicts an example of a compound identified in this manner.
Based on the docking predictions, a total of 26 compounds that featured a range of small or bulky aliphatic, arylic, biphenylic or heterocyclic side-chains (structures depicted in FIG. 5), were synthesized or purchased. In order to identify potent binders, the irreversible labeling efficiency of these second-generation compounds was assessed alongside the original screening hits under more stringent conditions, with a 1:1 ratio of protein to compound (2 μM compound; 1 hour at room temperature).
For further optimization of the lipophilic moiety, an alkyne side chain-bearing analog was prepared, which was derivatized with 448 different azides using copper-catalyzed azide-alkyne cycloaddition (CuAAC).

[1] = Thiol reactivity assay (DTNB); format: physicochemical; settings: 200 μM compound, pH 7.4, 37° C.
Description: 50 μM DTNB (dithionitrobenzoic acid) was incubated with 200 μM TCEP (tris(2-carboxytehyl)phosphine) in 20 mM sodium phosphate buffer (pH 7.4) with 150 mM NaCl, for 5 minutes at room temperature, in order to obtain TNB^2− (thionitrobenzoate dianion). 200 μM compounds were subsequently added to the TNB^2−, followed by immediate UV absorbance measurement at 412 nm (at 37° C.). The UV absorbance was acquired every 15 minutes for 7 hours. The assay was performed in a 384-well plate using a Spark™ 10M plate reader (Tecan). Background absorbance of compounds was subtracted by measuring the absorbance at 412 nm of each compound under the same conditions without DTNB. Compounds were measured in triplicates. The data was fitted to a second order reaction equation such that the rate constant k is the slope of ln([A][B0]/[B][A0]), where [A0] and [B0] are the initial concentrations of the compound (200 μM) and TNB^2− (100 μM) respectively, and [A] and [B] are the remaining concentrations as a function of time, as determined from the spectrometric measurement. Linear regression using Prism® software was performed to fit the rate against the first four hours of measurements.
In order to estimate the influence of the various lipophilic moieties on “warhead” reactivity [Flanagan et al., J Med Chem 2014, 57:10072-10079; Lonsdale et al., J Chem Inf Model 2017, 57:3124-3137; Dahal et al., Medchemcomm 2016, 7:864-872], the thiol reactivity of the top ten binders of the second and third generation was assessed using a high-throughput assay previously applied to the entire fragment library, as described in Resnick et al. [J Am Chem Soc 2019, 141:8951-8968]. In brief, the second-order rate constant was evaluated for a model thiol, which reflects trends in general reactivity towards thiol groups.

[2] = 2 μM Pin1 with 2 μM test compound for 1 hour at room temperature
[3] = 2 μM Pin1 with 200 μM test compound for 24 hours at 4° C.
[4] = 2 μM Pin1 with 2 μM test compound for 15 minutes at room temperature

T1 sequence (Q13526 52-163 limits assumed): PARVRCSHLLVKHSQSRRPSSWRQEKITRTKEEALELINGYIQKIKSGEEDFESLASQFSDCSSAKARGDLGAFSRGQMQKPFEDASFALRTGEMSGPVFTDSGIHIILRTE

| Structure (SMILES) | Labeling [%] (catalytic domain of Pin1; [2]) | Labeling [%] (catalytic domain of Pin1; [3]) | Labeling [%] (catalytic domain of Pin1; [4]) | Reactivity Log k [1] | Reactivity k [1] [M⁻¹ s⁻¹] |
| --- | --- | --- | --- | --- | --- |
| O=C(CCl)NC1CCS(=O)(=O)C1 (stereo not drawn) [PCM-0102138] | 0 | 56 | – | −6.92 | 1.2e-07 |
| O=C(CCl)N(CC1CCCO1)C1CCS(=O)(=O)C1 (stereo not drawn) [Pin1-838] | 16 | – | – | −6.85 | 1.41e-07 |
| O=C(CCl)N(Cc1ccccc1-c1ccccc1)C1CCS(=O)(=O)C1 (stereo not drawn) [Pin1-2-10] | 25 | – | – | −6.89 | 1.3e-07 |
| O=C(CCl)N(c1ccccc1)C1CCS(=O)(=O)C1 (stereo not drawn) [PCM-0102755] | – | 83 | – | −6.81 | 1.54e-07 |
| O=C(CCl)N(C1CCCCC1)C1CCS(=O)(=O)C1 (stereo not drawn) [PCM-0102760] | – | 100 | – | −7.00 | 1e-07 |
| O=C(CCl)N(C1CC1)C1CCS(=O)(=O)C1 (stereo not drawn) [PCM-0102832] | – | 72 | – | −7.22 | 6.02e-08 |
| CCCN(C(=O)CCl)C1CCS(=O)(=O)C1 (stereo not drawn) [Pin1-028] | 16 | – | – | −6.80 | 1.59e-07 |
| COCCN(C(=O)CCl)C1CCS(=O)(=O)C1 (stereo not drawn) [Pin1-324] | 12 | – | – | −6.80 | 1.59e-07 |
| COC(=O)c1ccc(-n2cc(CN(C(=O)CCl)C3CCS(=O)(=O)C3)nn2)cc1 (stereo not drawn) [Compound P1-01-B11] | – | – | 89 | −6.86 | 1.37e-07 |
| CC(=O)c1ccc(-n2cc(CN(C(=O)CCl)C3CCS(=O)(=O)C3)nn2)cc1 (stereo not drawn) [Compound P1-02-B04] | – | – | 62 | −5.90 | 1.26e-06 |
| O=C(CCl)N(Cc1cn(-c2cc(Br)ccc2O)nn1)C1CCS(=O)(=O)C1 (stereo not drawn) [Compound P1-02-E11] | – | – | 70 | −5.98 | 1.04e-06 |
| O=C(CCl)N(Cc1ccco1)C1CCS(=O)(=O)C1 (stereo not drawn) [Pin1-128] | 25 | – | – | −6.83 | 1.47e-07 |
| CCN(C(=O)CCl)C1CCS(=O)(=O)C1 (stereo not drawn) [PCM-0102105] | 0 | 85 | – | −6.96 | 1.1e-07 |
| NS(=O)(=O)c1ccc(-n2cc(CN(C(=O)CCl)C3CCS(=O)(=O)C3)nn2)cc1 (stereo not drawn) [Compound P1-03-G07] | – | – | 73 | −5.86 | 1.37e-06 |
| O=C(CCl)N(Cc1cn(-c2ccc(O)cc2)nn1)C1CCS(=O)(=O)C1 (stereo not drawn) [Compound P1-03-C04] | – | – | 72 | −6.42 | 3.78e-07 |
| O=C(CCl)N(Cc1ccccc1)C1CCS(=O)(=O)C1 (stereo not drawn) [Pin1-437] | – | – | – | −6.82 | 1.51e-07 |
| O=C(CCl)N(Cc1cn(-c2cccc(Cl)c2)nn1)C1CCS(=O)(=O)C1 (stereo not drawn) [Compound P1-01-G10] | – | – | 67 | −6.92 | 1.2e-07 |
| O=C(CCl)N(Cc1cccc(Cl)c1)C1CCS(=O)(=O)C1 (stereo not drawn) [Pin1-2-11] | 19 | – | – | −6.94 | 1.15e-07 |
| CN(C)CCN(C(=O)CCl)C1CCS(=O)(=O)C1 (stereo not drawn) [Pin1-707] | 0 | – | – | −8.93 | 1.17e-09 |
| O=C(CCl)N(Cc1cn(-c2ccc(CO)c(F)c2)nn1)C1CCS(=O)(=O)C1 (stereo not drawn) [Compound P1-01-F08] | – | – | 64 | −5.88 | 1.32e-06 |
| CC(c1ccccc1)N(C(=O)CCl)C1CCS(=O)(=O)C1 (stereo not drawn) [Pin1-2-2] | 27 | – | – | −7.09 | 8.06e-08 |
| CC(=O)c1cccc(-n2cc(CN(C(=O)CCl)C3CCS(=O)(=O)C3)nn2)c1 (stereo not drawn) [Compound P1-03-D08] | – | – | 54 | −5.92 | 1.2e-06 |
| O=C(CCl)N(Cc1ccccc1-c1cccc(C(F)(F)F)c1)C1CCS(=O)(=O)C1 (stereo not drawn) [Pin1-3-8] | 23 | – | – | −7.09 | 8.22e-08 |
| O=C(CCl)N(Cc1cccc(F)c1)C1CCS(=O)(=O)C1 (stereo not drawn) [Pin1-2-5] | 24 | – | – | −6.88 | 1.31e-07 |
| CC(C)(C)CN(C(=O)CCl)C1(C)CCS(=O)(=O)C1 (stereo not drawn) [Pin1-18] | – | – | – | −7.77 | 1.69e-08 |
| O=C(CCl)N(CC1CCCC1)C1CCS(=O)(=O)C1 (stereo not drawn) [Pin1-3-14, 2-chloro-N-(sulfolan-3-yl)-N-(cyclopentylmethyl)acetamide] | – | – | – | −7.15 | 7.03e-08 |
| CC(C)CN(C(=O)CCl)C1CCS(=O)(=O)C1 (stereo not drawn) [Pin1-3-15, 2-chloro-N-(sulfolan-3-yl)-N-isobutylacetamide] | 21 | – | – | −7.11 | 7.77e-08 |
| CCC(C)N(C(=O)CCl)C1CCS(=O)(=O)C1 (stereo not drawn) [Pin1-053] | 28 | – | – | −6.91 | 1.24e-07 |

Now from value to compound, other results behind:

| Labeling [%] (catalytic domain of Pin1; [2]) | Labeling [%] (catalytic domain of Pin1; [3]) | Labeling [%] (catalytic domain of Pin1; [4]) | Structure (SMILES) | Reactivity Log k [1] | Reactivity k [1] [M⁻¹ s⁻¹] |
| --- | --- | --- | --- | --- | --- |
| – | 100 | – | O=C(CCl)N(c1ccc(F)cc1)C1C=CS(=O)(=O)C1 (stereo not drawn) [PCM-0102868] | – | – |
| – | 100 | – | Cc1cccc(N(C(=O)CCl)C2C=CS(=O)(=O)C2)c1 (stereo not drawn) [PCM-0102579] | – | – |
| – | 42 | – | O=C(CCl)NCC1CCS(=O)(=O)C1 (stereo not drawn) [PCM-0102896] | – | – |
| – | 100 | – | Cc1ccc(N(C(=O)CCl)C2C=CS(=O)(=O)C2)cc1 (stereo not drawn) [PCM-0102539] | – | – |
| – | 100 | – | O=C(CCl)N(c1ccccc1)C1C=CS(=O)(=O)C1 (stereo not drawn) [PCM-0102372] | – | – |
| – | 69 | – | Cc1ccc(N(C(=O)CCl)C2C=CS(=O)(=O)C2)cc1C (stereo not drawn) [PCM-0103082] | – | – |
| 0 | 87 | – | CC1(NC(=O)CCl)CCS(=O)(=O)C1 (stereo not drawn) [PCM-0102230] | −7.05 | 8.87e-08 |
